Measured values: patent US20240252463A1, “METHODS OF TREATING FIBROTIC PATHOLOGIES” (Mayo Foundation for Medical Education and Research, priority 2018, published 2024)
Counter-ions that a name gives are not always drawn. Like-named read-outs stand apart in the source and are kept apart here.

How the values were obtained:
[1] = test system: YAP/TAZ; test: YAP/TAZ nuclear localization (immunofluorescence, automated imaging) in IPF patient-derived lung fibroblasts; type: cell-based, human; conditions: 10 μM, treated 2 hours prior to fixation; for Nuclear localization (% of total cells) IPF-1: patient sample IPF-1; for Nuclear localization (% of total cells) IPF-2: patient sample IPF-2; for Nuclear localization (% of total cells) IPF-3: patient sample IPF-3; for Nuclear localization (% of total cells) IPF-4: patient sample IPF-4
Experimental: 27A. […] IPF patient-derived lung fibroblasts cells treated 2 hours prior to fixation with diverse dopaminergic agonists (10 μM). N=4 different patient samples. % nuclear localization of YAP/TAZ was determined using automated imaging software. Scale bar represents 100 μm. 27C. cAMP measured in IPF patient-derived fibroblasts treated for 20 minutes with DHX. N=3. 27E.
(§1) ImmunofluorescenceMicroscopy: Cells were plated into 96 well plates (Corning 3603) in their specific growth media and allowed to attach (8 hours). Media was then exchanged for the indicated conditions for each experiment. Cells were fixed in 3.7% formalin (Sigma-Aldrich), permeabilized in 0.25% Triton X-100 (Sigma-Aldrich) and then blocked with 1% BSA for 1 h. Cells or tissue sections were incubated overnight with mouse monoclonal antibody against αSMA (Sigma-Aldrich F3777), and/or a rabbit monoclonal antibody against YAP/TAZ (Cell Signaling D24E4) diluted 1:200 in PBS with 1% BSA. Cells were then washed and exposed to flourescence-conjugated secondary antibodies (Invitrogen) diluted 1:1000 and DAPI (Thermo Fisher Scientific). Images were taken with a Cytation5 (BioTek) microscope. For scoring αSMA positive cells (FIG. 3b), an observer blinded to the treatment conditions counted αSMA-positive cells using a visual threshold for bright fibrous staining; a minimum of 200 cells was counted for each condition. YAP/TAZ localization was quantified (FIG. 2, 6, 8) using Gen5 (Biotek) software. Images were taken at 4× magnification of both DAPI and YAP/TAZ staining. […] Quantification of double positive (YAP/TAZ and αSMA) cells from lung tissue sections (FIG. 4d) was performed similarly; however separate thresholds were established for both YAP/TAZ and αSMA. A minimum of 4000 cells was quantified for each mouse.

[2] = test system: αSMA; test: αSMA intensity (fibroblast activation) in IPF patient-derived lung fibroblasts + TGFβ; type: cell-based, human; conditions: 1 μM + TGFβ, treated for 72 hours; for activity at 1 µM: Homo sapiens, SMA
Experimental: as §1

[3] = patient sample IPF-1, read-out: αSMA intensity (% of DMSO control) IPF-1
[4] = patient sample IPF-2, read-out: αSMA intensity (% of DMSO control) IPF-2
[5] = patient sample IPF-3, read-out: αSMA intensity (% of DMSO control) IPF-3
[6] = patient sample IPF-4, read-out: αSMA intensity (% of DMSO control) IPF-4

SMILES | Nuclear localization (% of total cells) IPF-1 [1] | Nuclear localization (% of total cells) IPF-2 [1] | Nuclear localization (% of total cells) IPF-3 [1] | Nuclear localization (% of total cells) IPF-4 [1] | activity at 1 µM [2, 3] | activity at 1 µM [2, 4] | activity at 1 µM [2, 5] | activity at 1 µM [2, 6] | αSMA intensity (% of DMSO control) IPF-1 ([2]; patient sample IPF-1) | αSMA intensity (% of DMSO control) IPF-2 ([2]; patient sample IPF-2) | αSMA intensity (% of DMSO control) IPF-3 ([2]; patient sample IPF-3) | αSMA intensity (% of DMSO control) IPF-4 ([2]; patient sample IPF-4)
CN1Cc2ccccc2C2c3cccc4[nH]cc(c34)CC21 (stereo not drawn) [CY 208-243] | 20.52 % of total cells | 39.79 % of total cells | 41.17 % of total cells | 19.82 % of total cells | 21% | 2.28% | 2.61% | 9.64% |  |  |  | 
C=CCN1C[C@H](C(=O)N(CCCN(C)C)C(=O)NCC)C[C@@H]2c3cccc4[nH]cc(c34)C[C@H]21 [Cabergoline] |  |  |  |  | 76.9% | 48.1% | 77.1% | 45.8% |  |  |  | 
CCCN(CCC)CCc1ccc(O)c(O)c1 [Dipropyldopamine•HBr, Dipropyldopamine] | 69.18 % of total cells | 74.36 % of total cells | 65.5 % of total cells | 51.82 % of total cells |  |  |  |  | 48.72 % of DMSO control | 28.11 % of DMSO control | 40.34 % of DMSO control | 25.86 % of DMSO control
CCCN1CCC[C@@H]2Cc3nc(N)ncc3C[C@H]21.Cl.Cl [LY-163,502•2HCl] | 73.37 % of total cells | 60.97 % of total cells | 59.43 % of total cells | 66.49 % of total cells |  |  |  |  | 88.99 % of DMSO control | 72.86 % of DMSO control | 75.3 % of DMSO control | 86.7894 % of DMSO control
CN1C[C@@H](NS(=O)(=O)N(C)C)C[C@@H]2c3cccc4c3c(cn4C)C[C@H]21 [Mesulergine•HCl, Mesulergine] |  |  |  |  | 35.5% | 23.3% | 40% | 19.8% |  |  |  | 
CCCN1C[C@H](CSC)C[C@@H]2c3cccc4[nH]cc(c34)C[C@H]21 [Pergolide mesylate, Pergolide] |  |  |  |  | 65% | 51.6% | 63.6% | 48.1% |  |  |  | 
c1cnc(N2CCN(Cc3ccc4c(c3)OCO4)CC2)nc1 [Piribedil•2HCl, Piribedil] |  |  |  |  | 70.4% | 61.5% | 71.5% | 41.2% |  |  |  | 
CCCN[C@H]1CCc2nc(N)sc2C1 [Pramipexole Dihydrochloride Monohydrate, Pramipexole] |  |  |  |  | 87.6% | 73.2% | 82.8% | 89.9% |  |  |  | 
CCCN(CCC)CCc1cccc2c1CC(=O)N2 [Ropinirole HCl, Ropinirole] |  |  |  |  | 72.2% | 53.5% |  | 62% |  |  |  | 
Oc1cc2c(cc1O)[C@@H](c1ccccc1)CNCC2 [SKF 38393•HBr] |  |  |  |  | 37.1% | 26.8% | 31.2% | 20.8% |  |  |  | 
